The nature of series [1]: Detergency against keratotic plug after washing with water. Details: species or system human. The conditions noted are these: sample substituted with water; Table 1 samples. As to the method: After one minute from the contact of the keratotic plugs with the sample, Kimwipes (registered trademark) was brought into contact with an edge of the cover glass to remove the sample under the cover glass. Then, 0.05 mL of water was gradually dropwise added to an edge of the cover glass. The sample dropwise-added with water was recorded with the digital microscope, and the collapse state of the keratotic plugs was evaluated after one minute from the contact of the keratotic plugs with water according to the criteria for evaluating collapsibility of the keratotic plugs. The results of the evaluation are shown in the column “Keratotic plug detergency (during washing with water)” in Table. The measurements were performed at 25° C.

The conditions of series [2]: cited from earlier work.
The nature of series [3]: Detergency against keratotic plug during cleansing (penetration and collapse under digital microscope). The arrangement: species or system human. Particulars: Table 1 samples; for Penetration of the sample into keratotic plugs (in words): contact with sample for 1 minute; for Collapse of keratotic plugs in contact with the sample (in words): assumption of cleansing. As to the method:
Keratotic plugs in the nasal region were removed with “Biore Nose Pack (manufactured by Kao Corporation)”, the resulting keratotic plugs on the pack were gently taken out with tweezers.
The resulting keratotic plugs were placed on a slide glass and were covered with a cover glass, and 0.05 mL of a sample was dropwise added to an edge of the cover glass. Consequently, the sample entered into the gap between the slide glass and the cover glass by capillary phenomenon and was brought into contact with the keratotic plugs. The contact of the keratotic plugs and the sample was recorded with a digital microscope (VHX-5000, manufactured by Keyence Corporation, magnification: 150×), and the penetration of the sample into the keratotic plugs and the collapse state of the keratotic plugs were evaluated after one minute from the contact of the keratotic plugs with the sample. The results of each evaluation are shown in the columns “Keratotic plug detergency (penetration)” and “Keratotic plug detergency (during cleansing)” in Tables. The measurements were performed at 25° C.
The penetration was relatively evaluated by criteria with 11 ratings starting from the rating 1 “the sample hardly penetrated into the keratotic plug” to the rating 11 “the sample penetrated to the center of the keratotic plug”. The collapsibility by the detergency against keratotic plug was relatively evaluated by criteria with 11 ratings starting from the rating 1 “almost no change is observed in the external appearance of the keratotic plug” to the rating 11 “peeling or separation is observed in the area from the surface layer to the central portion of the keratotic plug (the initial appearance of the keratotic plug is not retained)”.

The conditions of series [4]: at 25° C.; cited from earlier work.
Series [5] deals with insoluble protein (seine protein). The series is described as follows: Effect of suppressing protein aggregation. It counts as physicochemical. Particulars: Table 1 sample. As to the method: Thirty milliliters of a sample and 0.06 g of an insoluble protein (seine protein) were placed in a 35-mL standard glass bottle, and the concentration of the insoluble protein was adjusted to 0.2 mass % (test sample). Separately, a standard sample was prepared by using water instead of the sample and adjusting the concentration of the insoluble protein to 0.2 mass %. Subsequently, the standard glass bottles were sufficiently shaken and stirred up and down (shake width: 15 cm, 20 times at a rate of 5 times for 3 seconds) in a thermostatic chamber of 25° C. and were left to stand for 3 minutes. The precipitation state of the insoluble protein was then visually verified, and the ratio of the amount of the precipitated standard sample to the amount of the precipitated test sample (the height of the precipitate in each standard glass bottle was measured as the precipitation amount), (precipitation amount of standard sample)/(precipitation amount of test sample), was calculated. A higher ratio indicates a higher effect of suppressing protein aggregation.

This is an account of results in patent US20200155434A1, “SKIN CLEANSING COMPOSITION” (KAO CORPORATION, priority 2017, published 2020).

The term pKa denotes the pH at which an ionisable group is half protonated. For the compound `NC(CO)(CO)CO` [Tris, 2-amino-2-hydroxymethyl-1,3-propanediol], in series [1], the “Collapse of keratotic plugs during washing with water (in words)” value (from here on “Collapse … with water (in words)”) is given as “further accelerating the collapse of keratotic plugs”. For the same compound, in series [2], the “Solubility in water (in words)” value is on record as “readily dissolved in water”. The “Penetration of the sample into keratotic plugs (in words)” value (“Penetration” below) in series [3] is listed as “penetrated into keratotic plugs”. Further, the pKa in series [4] is listed as 8.03.
As for `O=P([O-])([O-])O.[Na+].[Na+]` [disodium hydrogen phosphate], the “Collapse … with water (in words)” value in series [1] was “collapse of keratotic plugs did not progress”. Moreover, in series [3], the “Collapse of keratotic plugs in contact with the sample (in words)” value (“Collapse of keratotic plugs in contact” for short) is recorded as “collapse of the keratotic plugs did not progress” and the “Penetration” value is “hardly penetrated into keratotic plugs”.
Regarding `O=C([O-])O.[Na+]` [sodium hydrogen carbonate], the “Collapse … with water (in words)” value in series [1] is reported as “collapse of keratotic plugs did not progress”. Further, in series [3], the “Collapse of keratotic plugs in contact” value was “collapse of the keratotic plugs did not progress” and the “Penetration” value is listed as “hardly penetrated into keratotic plugs”.
As for `CC(N)(CO)CO` [AMPD, 2-amino-2-methyl-1,3-propanediol], in series [4], the pKa is listed as 8.76.
As to “sodium polyoxyethylene (2) lauryl ether sulfate [POE (2) sodium lauryl sulfate]”, the “Action on proteins (in words)” value in series [5] is “dissolve the proteins”. Further, in series [3], the “Collapse of keratotic plugs in contact” value is recorded as “collapse of the keratotic plugs did not progress” and the “Penetration” value was “hardly penetrated into the keratotic plugs”.
Turning to `CC(C)(N)CO` [AMP, 2-amino-2-methyl-1-propanol], the “Solubility in water (in words)” value in series [2] was “readily dissolved in water”. In addition, the pKa in series [4] was 9.72.
Consider `O=P([O-])([O-])[O-].[Na+].[Na+].[Na+]` [trisodium phosphate], for which the “Collapse … with water (in words)” value in series [1] is listed as “collapse of keratotic plugs did not progress”. In series [3], the “Collapse of keratotic plugs in contact” value is on record as “collapse of the keratotic plugs did not progress” and the “Penetration” value was “hardly penetrated into keratotic plugs”.
